Experimental data from article PMC10721329, “Quisinostat is a brain-penetrant radiosensitizer in glioblastoma” (JCI Insight, 2023).
Values joined by “and” are separate entries in the source; they are usually repeats but may differ in a detail not shown here. Equal entries are not always repeated. Where two headings read alike, the source gives them in different places.

Columns and labels:
[1] = cited from earlier work
[2] = Stability in mouse plasma at 37°C; format: in vitro ADME; conditions: for [QST] mouse plasma at 37C, raw response / [QST], % of control: replicates; for [QST], % of control: mouse plasma
Protocol: Hydroxamic acid–based compounds have been reported to display poor stability and high plasma clearance due to the presence of arylesterases and carboxylesterases in rodent blood ([34]). Therefore, we measured the stability of QST in mouse plasma and brain to determine whether drug degradation occurred during our sample preparations and equilibrium dialyses for the determination of unbound drug level (performed at 37°C). […] QST degradation was also observed in mouse brain homogenate (Figure 6B). However, perfusion of mice before brain collection prevented rapid drug degradation in the brain matrix. […] Degradation of QST can also be constrained if plasma and brain samples are processed at 4°C (Supplemental Figure 4A). All subsequent sample preparations were therefore performed on ice-cold baths to avoid degradation of QST in our PK analyses. […] The observed stability is probably due to the absence of esterases in human matrices, which are responsible for degradation of QST ([34]). Because we employed QST in several in vitro studies (Figures 1–4), the stability of the molecule was also tested in the cell media used to culture GSCs (neurobasal medium; see Methods).
Stability Study in Mouse Plasma, Mouse Brain, Human Plasma, Human Brain, and Neural […]
The stability of QST was determined in BALB/c mouse plasma, male nude athymic perfused and nonperfused mouse brain homogenate (1:9 w/v of PBS; pH 7.4), human brain (obtained from VRL Eurofins) homogenate (1:4 w/v of PBS; pH 7.4), pooled human plasma (Innovative Research), and neurobasal media. QST stock solutions (1 mM) were prepared in acetonitrile, subsequently diluted in a 40% methanol mixture, and added t o the matrices to make […]
[…] Then 50 or 30 µL of either plasma or brain homogenate containing QST were aliquoted into 1.5-mL microcentrifuge tubes (Eppendorf) and were incubated at either 4 °C or 37 °C for 0, 2, 4, 6, 12, or 24 hours (n = 3 at each time point).
The stability of QST in mouse plasma was also tested at 0, 2, 8, 16, or 24 hours (n = 3 at each time point) in the presence of esterase inhibitors: 0.25 mM BNPP, 1mM dithiobis(2-nitrobenzoic acid) (DTNB), or 1.25 mM phenylmethylsulfonyl fluoride (PMSF). Plasma and brain homogenate samples were stored at −80 °C until LC-MS/MS analysis. […]

[3] = Total QST levels in plasma and flank tumors (LC-MS/MS); format: in vivo; conditions: athymic nude, mouse, 10 mg/kg
Protocol: QST concentrations in specimens were measured using reverse-phase LC on the AB SCIEX QTRAP6500+ LC-MS/MS system by operating electrospray in the positive ion mode. For liquid chromatographic separation, gradient elution was performed using a Phenomenex Kinetex F5 100 Å column (100 × 2.1 mm, 2.6 μm). The initial composition of the mobile phase was 70% phase A (0.1% formic acid in water) and 30% phase B (0.1% formic acid in 1:1 acetonitrile/methanol) with a 0.35 mL/min flow rate. Gradient elution was achieved as follows: mobile phase (B) was maintained at 30% from 0 to 0.3 minutes, increased to 95% from 0.3 to 0.8 minutes, maintained at 95% from 0.8 to 2.5 minutes, and decreased to 30% from 2.5 to 2.8 minutes. The total run time was 3.5 minutes. The internal standard used in this study was D8-infigratinib. The retention times for QST and D8-infigratinib were 1.6 and 1.8 minutes, respectively. Mass-to-charge ratio transitions were as follows: 395.20 → 144.00 (QST) and 568.08 → 321.00 (D8-infigratinib). LC-MS/MS analysis was performed using an Analyst 1.7 Chromatographic Data System. See Supplemental Methods for detailed PK experiments. […]
treated with 2 Gy of ionizing radiation on MWF for a total 6 Gy (3 doses). Ionizing radiation was administered with the RS2000 series biological research irradiator (Rad Source Technologies).
Treatment of Flank-Implanted Mice with QST and/or Radiation
Implanted flank tumors were allowed to grow until the tumor size reached 100 mm3 volume. Mice were randomized into groups before treatment and underwent treatment on MWF for the entire duration of the experiment until the tumor volumes exceeded 2000 mm3. Treatment groups included vehicle (50% PEG-300), QST alone (10 mg/kg), flank IR treatment with vehicle (2 Gy), and flank IR treatment (2 Gy) with QST (10 mg/kg). For mice receiving IR treatment with or without QST, mice were treated with 2 Gy on MWF for a total 6 Gy during the first week of treatment. QST was administered to mice through intraperitoneal injections 2 hours before flank tumor radiation treatment. Upon completion of the radiation regimen, IR-treated mice subsequently received QST or vehicle alone for the rest of the experiment. Tumor growth and treatment response were monitored by manually measuring the tumor area twice per week starting at 13 days after implantation. Upon reaching the tumor volume threshold (2000 mm3), mice were sacrificed, and plasma and tissue samples were harvested for PD and PK analyses 2 hours after treatment with a final dose of QST (10 mg/kg). […]
Calibration Standards and Quality Control Samples
Stock solutions of standard (1 mM QST) and IS (250 µM D8-infigratinib) were prepared in acetonitrile. Working solutions for calibration curve standards and quality controls (QCs) were prepared by dilutions with a 40% methanol mixture aqueous solution. The IS precipitation solution (10 nM) was prepared from the IS stock solutions by dilution with methanol. Calibration standards and batch qualifying QCs were freshly spiked for every batch. For sample analysis in human and mouse matrices, calibration standards were prepared in bulk by spiking appropriate amounts of working solutions into blank human plasma, used as a surrogate matrix due to the instability of QST in mouse plasma. For sample analysis in neural stem cell media and cell lysate, calibration standards were prepared in bulk by spiking appropriate amounts of working solutions into neural stem cell media. QC samples were prepared in bulk by spiking appropriate amounts of working solutions into blank mouse plasma or cell media. Preparation of calibration standards and QC samples was performed at 4 °C. Final concentrations range of the calibration standards were 1–1000 nM in human plasma or neural stem cell media. Three QC levels (low, medium, and high) were used during all sample analyses. The concentrations of QC samples in various matrices were 3 nM (low QC), 22 nM (medium QC), and 800 nM (high QC). All stock […]

## Cn1cc(CNCC2CCN(c3ncc(C(=O)NO)cn3)CC2)c2ccccc21 [QST, quisinostat]
[1]; patients, given 3 times weekly
  maximum-tolerated dose: 12 mg
[1]; phase I trials
  hematologic toxicities (grade 1 and 2), share of patients: < 5%
[2]; 500 nM, Time 0
  [QST] mouse plasma at 37C, raw response, Average: 1.911
  [QST] mouse plasma at 37C, raw response: 1.823 and 1.9096 and 2.002
[2]; 500 nM, Time 1
  [QST] mouse plasma at 37C, raw response, Average: 0.7582
  [QST] mouse plasma at 37C, raw response: 0.7296 and 0.7817 and 0.7634
[2]; 500 nM, Time 2
  [QST] mouse plasma at 37C, raw response, Average: 0.2892
  [QST] mouse plasma at 37C, raw response: 0.2668 and 0.314 and 0.2868
[2]; 500 nM, Time 4
  [QST] mouse plasma at 37C, raw response, Average: 0.02578
[2]; 500 nM, Time 8
  [QST] mouse plasma at 37C, raw response, Average: 0.00189
  [QST] mouse plasma at 37C, raw response: 0.00167 and 0.04867 and 0.00211
[2]; BALB/c, mouse, plasma, 37°C, 8-hour incubation
  half-life: ~1 h
[2]; Time 4
  [QST] mouse plasma at 37C, raw response: 0.02689 and 0.02585 and 0.0246
[2]; 10 nM, Time 6 hrs
  [QST], % of control: 2.9% and 3.1% (2×)
[2]; 10 nM, Time 12 hrs
  [QST], % of control: 2.6% and 2% and 2.1%
[2]; 100 nM, Time 6 hrs
  [QST], % of control: 1.4% (2×) and 1.3%
[2]; 100 nM, Time 12 hrs
  [QST], % of control: 0.1% (2×) and 2.5%
[3]; flank tumor, intraperitoneal, Combination (QST+IR) cohort, read-out: [QST] total, flank tumor, Mean
  concentration at 2 h: 501 nM
[3]; flank tumor, intraperitoneal, QST monotherapy cohort, read-out: [QST] total, flank tumor, Mean
  concentration at 2 h: 479 nM
[3]; flank tumor, ip, QST- and combination-treated mice, 10 mg/kg IP, 2 hours after final dose, read-out: mean total QST concentration in flank tumors
  concentration at 2 h: ~433 nM
[3]; plasma, intraperitoneal, Combination (QST+IR) cohort, read-out: [QST] total, plasma, Mean
  concentration at 2 h: 276 nM
[3]; plasma, intraperitoneal, QST monotherapy cohort, read-out: [QST] total, plasma, Mean
  concentration at 2 h: 250 nM
[3]; plasma, ip, QST- and combination-treated mice, 10 mg/kg IP, 2 hours after final dose, read-out: mean total QST concentration in plasma
  concentration at 2 h: ~300 nM
